2 compounds from patent publication EP0643712B1, “SPIRO-OXETANES, PROCESS FOR PREPARING THE SAME AND MEDICAMENTS” (BOEHRINGER MANNHEIM GMBH, priority 1992, dated 1993) can be followed below.

One assay concerns humanen Thrombozyten. The assay can be described thus: Inhibition of collagen-induced arachidonic acid (3H-AA) release from platelets. The class given is cell-based. The conditions noted are these: Homo sapiens, Platelet, read-out: AA in % (Hemmung der Collagen induzierten Arachidonsäurefreisetzung). The source says:
Als weiterer Indikator einer PLA2-Inhibition gilt eine Hemmung der AA-Freisetzung aus Thrombozyten. Zu diesem Zweck werden die Thrombozyten mit ^3H-AA inkubiert. Diese zugegebene radioaktive Arachidonsäure baut sich in Membranphospholipide ein. Anschließend wird die thrombozytäre PLA2 über den Collagenrezeptor aktiviert und ^3H-AA so aus Phospholipen wieder ins Medium freigesetzt, wo sie quantifiziert werden kann.

Assay [1] deals with T1, humane rekombinante Typ II PLA2 (Homo sapiens, UniProt P14555).
T1 sequence (P14555 21-144): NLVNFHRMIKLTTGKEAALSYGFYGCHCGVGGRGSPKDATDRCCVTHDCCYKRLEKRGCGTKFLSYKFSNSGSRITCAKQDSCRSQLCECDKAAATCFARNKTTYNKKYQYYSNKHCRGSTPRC
The assay can be described thus: In-vitro inhibition of PLA2 enzyme activity. Type of assay: biochemical. The note with it: for inhibition at 1 µg/mL / inhibition at 10 µg/mL / inhibition at 100 µg/mL: read-out: PLA2 in % (Hemmung der Enzymaktivität); for PLA2 in % (Hemmung der Enzymaktivität) / inhibition at 100 µg/mL: 100 µg/ml. The source says:
Als typischer Vertreter einer PLA2 wurde die humane rekombinante Typ-II-PLA2 (= synoviale PLA2) zur Testung eingesetzt.
Die Tabelle 1 enthält die prozentuale in-vitro Hemmung dieses Enzyms durch die Verbindung des Beispiels 1, einen Spiro-Oxetan-Vertreter. Das Enzym wird dosisabhängig bis zu 93 % inhibiert.

Structures are written as SMILES. A value given as a limit tells only on which side of the number the result lay.

In the case of `O=C1C=CC2(C=C1)CC1(CCC(=O)O1)O2` (centres unmarked) [Bsp. 1, 1,6-Dioxadispiro[4.1.5.1]trideca-8,11-dien-2,10-dion], in the assay with humanen Thrombozyten, the inhibition at 1 µg/mL was 42%, the inhibition at 10 µg/mL came out at 86% and the inhibition at 100 µg/mL was determined as 100%. For the same compound, in assay [1], the inhibition at 1 µg/mL was found to be 11%, the inhibition at 10 µg/mL came out at 37%, the “PLA2 in % (Hemmung der Enzymaktivität)” value stood at 93% and the inhibition at 100 µg/mL was at most 93%.
In the case of `COc1ccc2c(c1)c(CC(=O)O)c(C)n2C(=O)c1ccc(Cl)cc1` [Indomethacin], in the assay with humanen Thrombozyten, the inhibition at 1 µg/mL amounted to 6%, the inhibition at 10 µg/mL is 18% and the inhibition at 100 µg/mL was found to be 23%. Further, in assay [1], the inhibition at 1 µg/mL was 0%, the inhibition at 10 µg/mL stood at 10%, the “PLA2 in % (Hemmung der Enzymaktivität)” value was 52% and the inhibition at 100 µg/mL worked out at 52%.
